Measurements taken from publication PMC12669630, “The twist-and-squeeze activation of CARF-fused adenosine deaminase by cyclic oligoadenylates” (The EMBO Journal, 2025).
Read-outs that look alike come from different tables or passages of the source. Blank lines part the entries; values can stand above or below the compound they belong to.

Columns and labels:
TaqCad1 [1] = target: T1, TaqCad1 (Thermoanaerobaculum aquaticum, UniProt A0A062XY19); assay: microscale thermophoresis (RED-tris-NTA labelled protein); format: binding
T1 construct: gene EG19_07865; full length 1-625, C-terminal His6 tag kept, E. coli NiCo21(DE3); homohexamer (trimer of dimers); N-terminal CARF, C-terminal ADA domain

TaqCad1 [2] = target: T2, TaqCad1 (Thermoanaerobaculum aquaticum, UniProt A0A062XY19, N549D); assay: HPLC ATP deamination assay; format: biochemical; conditions: no conversion; cA4 activator, Mg2+, pH 7.5, 55 °C
T2 construct: gene EG19_07865; full length 1-625, C-terminal His6 tag kept, E. coli NiCo21(DE3); homohexamer (trimer of dimers); N-terminal CARF, C-terminal ADA domain

TaqCad1 [3] = target: T3, TaqCad1 (Thermoanaerobaculum aquaticum, UniProt A0A062XY19, G264D/N549D); assay: HPLC ATP deamination assay; format: biochemical; conditions: no conversion; cA4 activator, Mg2+, pH 7.5, 55 °C
T3 construct: gene EG19_07865; full length 1-625, C-terminal His6 tag kept, E. coli NiCo21(DE3); homohexamer (trimer of dimers); N-terminal CARF, C-terminal ADA domain

[4] = target: TaqCad1 R408D/A411E variant (Thermoanaerobaculum aquaticum); assay: SEC; gel filtration elution profiles of wild type and R408D/A411E compared; column and buffer of this run not stated

T1 sequence (A0A062XY19 entry or part of it): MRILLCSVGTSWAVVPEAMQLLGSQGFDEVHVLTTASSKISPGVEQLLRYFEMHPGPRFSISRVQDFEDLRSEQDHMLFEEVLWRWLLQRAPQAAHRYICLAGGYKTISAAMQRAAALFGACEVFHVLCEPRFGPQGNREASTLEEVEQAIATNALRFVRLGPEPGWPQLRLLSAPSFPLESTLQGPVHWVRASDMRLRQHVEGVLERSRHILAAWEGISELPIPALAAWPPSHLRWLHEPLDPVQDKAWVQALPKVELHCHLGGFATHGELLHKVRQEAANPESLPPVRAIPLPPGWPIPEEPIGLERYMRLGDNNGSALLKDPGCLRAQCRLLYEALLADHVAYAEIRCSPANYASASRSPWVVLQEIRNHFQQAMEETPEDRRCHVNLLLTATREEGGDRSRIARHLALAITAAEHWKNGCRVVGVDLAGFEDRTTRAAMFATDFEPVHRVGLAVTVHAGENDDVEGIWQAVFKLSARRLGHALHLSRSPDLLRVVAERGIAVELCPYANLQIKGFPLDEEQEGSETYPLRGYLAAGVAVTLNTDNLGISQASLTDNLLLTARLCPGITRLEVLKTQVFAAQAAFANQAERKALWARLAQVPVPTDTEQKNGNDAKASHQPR
T3 sequence (A0A062XY19 entry or part of it G264D/N549D): as the sequence (A0A062XY19 entry or part of it) above, with G264D, N549D counted along it
T2 sequence (A0A062XY19 entry or part of it N549D): as the sequence (A0A062XY19 entry or part of it) above, with N549D counted along it

Kd (TaqCad1 [1]; read-out: apparent Kd): 13 ± 7 nM
Compound: Nc1ncnc2c1ncn2[C@@H]1O[C@@H]2COP(=O)(O)O[C@H]3[C@@H](O)[C@H](n4cnc5c(N)ncnc54)O[C@@H]3COP(=O)(O)O[C@H]3[C@@H](O)[C@H](n4cnc5c(N)ncnc54)O[C@@H]3COP(=O)(O)O[C@H]3[C@@H](O)[C@H](n4cnc5c(N)ncnc54)O[C@@H]3COP(=O)(O)O[C@H]2[C@H]1O [cA4]

Compound: Nc1ncnc2c1ncn2[C@@H]1O[C@H](COP(=O)(O)OP(=O)(O)OP(=O)(O)O)[C@@H](O)[C@H]1O [ATP]
HPLC ATP deamination assay (TaqCad1 [2]): the N549D or the N549D/G264D variant of TaqCad1 did not react to ATP
HPLC ATP deamination assay (TaqCad1 [3]): the N549D or the N549D/G264D variant of TaqCad1 did not react to ATP

Kd (TaqCad1 [1]; read-out: apparent dissociation constant): ~1400 nM
Compound: Nc1ncnc2c1ncn2[C@@H]1O[C@@H]2COP(=O)(O)O[C@H]3[C@@H](O)[C@H](n4cnc5c(N)ncnc54)O[C@@H]3COP(=O)(O)O[C@H]3[C@@H](O)[C@H](n4cnc5c(N)ncnc54)O[C@@H]3COP(=O)(O)O[C@H]3[C@@H](O)[C@H](n4cnc5c(N)ncnc54)O[C@@H]3COP(=O)(O)O[C@H]3[C@@H](O)[C@H](n4cnc5c(N)ncnc54)O[C@@H]3COP(=O)(O)O[C@H]3[C@@H](O)[C@H](n4cnc5c(N)ncnc54)O[C@@H]3COP(=O)(O)O[C@H]2[C@H]1O [cA6]

stoichiometry N [4]: 2
Compound: TaqCad1 R408D/A411E variant (enzyme)
